Data from patent US20250171438A1 (Agios Pharmaceuticals, Inc., priority 2022, published 2025).

target: T1, human PAH with the R408W mutation (Homo sapiens, UniProt P00439, R408W); experiment: Cell Based Phenylalanine Flux Assay; conditions: A375 cells expressing human R408W PAH; 24 hrs compound incubation; 13C-Tyrosine by LC-MS; average where tested multiple times; read-out: AC50
T1 construct: expressed in transfected cells
T1 sequence (P00439 1-452 R408W): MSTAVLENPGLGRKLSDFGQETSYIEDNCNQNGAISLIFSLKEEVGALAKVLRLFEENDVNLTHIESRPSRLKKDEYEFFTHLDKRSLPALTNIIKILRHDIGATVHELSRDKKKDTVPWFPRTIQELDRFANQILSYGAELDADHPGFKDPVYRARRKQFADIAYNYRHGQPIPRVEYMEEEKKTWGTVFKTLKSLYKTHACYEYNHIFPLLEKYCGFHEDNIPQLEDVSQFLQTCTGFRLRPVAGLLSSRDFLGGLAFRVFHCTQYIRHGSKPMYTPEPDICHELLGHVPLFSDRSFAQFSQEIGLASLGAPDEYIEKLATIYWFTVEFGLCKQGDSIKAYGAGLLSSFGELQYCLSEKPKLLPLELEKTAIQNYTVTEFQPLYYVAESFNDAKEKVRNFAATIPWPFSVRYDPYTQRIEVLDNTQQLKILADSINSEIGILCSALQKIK

Compound	AC50
O=C(c1oc(/C=C/C2CC2)nc1C(F)(F)F)N1CCc2[nH]cnc2[C@@H]1c1nc2ccccc2s1 [Example 1568, (R,E)-(4-(benzo[d]thiazol-2-yl)-6,7-dihydro-1H-imidazo[4,5-c]pyridin-5(4H)-yl)(2-(2-cyclopropylvinyl)-4-(trifluoromethyl)oxazol-5-yl)methanone]	1000 to 5000 nM
O=C(c1cnn2ccc(F)cc12)N1CCc2[nH]cnc2[C@H]1c1nc2ccccc2s1 [Example 1103]	500 to 1000 nM
O=C(c1cnc(C2CC2)o1)N1CCc2[nH]cnc2[C@@H]1c1nc2ccccc2s1 [Example 1188, (R)-(4-(benzo[d]thiazol-2-yl)-6,7-dihydro-1H-imidazo[4,5-c]pyridin-5(4H)-yl)(2-cyclopropyloxazol-5-yl)methanone]	1000 to 5000 nM
O=C(c1cnc(NC2CC2)s1)N1CCc2[nH]cnc2[C@H]1c1nc2ccccc2s1 [Example 1183]	< 500 nM
Cc1ncoc1C(=O)N1CCCc2[nH]cnc2[C@@H]1c1nc2ccccc2s1 [Example 2130, (R)-(4-(benzo[d]thiazol-2-yl)-7,8-dihydroimidazo[4,5-c]azepin-5(1H,4H,6H)-yl)(4-methyloxazol-5-yl)methanone]	> 5000 nM
O=C(c1nncs1)N1CCc2[nH]cnc2[C@@H]1c1nc2ccc(Cl)cc2[nH]1 [Example 957, (R)-(4-(6-chloro-1H-benzo[d]imidazol-2-yl)-6,7-dihydro-1H-imidazo[4,5-c]pyridin-5(4H)-yl)(1,3,4-thiadiazol-2-yl)methanone]	> 5000 nM
Cc1nc(-c2cnn(CC(F)(F)F)c2)oc1C(=O)N1CCc2[nH]cnc2[C@@H]1c1nc2c(F)cccc2s1 [Example 1505, (R)-(4-(4-fluorobenzo[d]thiazol-2-yl)-6,7-dihydro-1H-imidazo[4,5-c]pyridin-5(4H)-yl)(4-methyl-2-(1-(2,2,2-trifluoroethyl)-1H-pyrazol-4-yl)oxazol-5-yl)methanone]	1000 to 5000 nM
Cn1cc(C(=O)N2CCc3[nH]cnc3[C@H]2c2nc3c(F)cccc3s2)c(C(F)(F)F)n1 [Example 1613, (S)-(4-(4-fluorobenzo[d]thiazol-2-yl)-6,7-dihydro-1H-imidazo[4,5-c]pyridin-5(4H)-yl)(1-methyl-3-(trifluoromethyl)-1H-pyrazol-4-yl)methanone]	< 500 nM
CC(F)(F)c1ncc(C(=O)N2CCc3[nH]cnc3[C@H]2c2nc3ccccc3s2)s1 [Example 1511]	< 500 nM
O=C(c1cnn2cc(F)ccc12)N1CCc2[nH]cnc2[C@H]1c1nc2cc(F)ccc2s1 [Example 1333, (S)-(4-(5-fluorobenzo[d]thiazol-2-yl)-6,7-dihydro-1H-imidazo[4,5-c]pyridin-5(4H)-yl)(6-fluoropyrazolo[1,5-a]pyridin-3-yl)methanone]	500 to 1000 nM
CN1CCN(c2nc(Br)c(C(=O)N3CCc4[nH]cnc4[C@H]3c3nc4c(F)cccc4s3)o2)CC1 [Example 2031, (S)-(4-bromo-2-(4-methylpiperazin-1-yl)oxazol-5-yl)(4-(4-fluorobenzo[d]thiazol-2-yl)-6,7-dihydro-1H-imidazo[4,5-c]pyridin-5(4H)-yl)methanone]	< 500 nM
O=C(c1oc(CCC2CC2)nc1C(F)(F)F)N1CCCc2[nH]cnc2[C@@H]1c1nc2ccccc2s1 [Example 2136, (R)-(4-(benzo[d]thiazol-2-yl)-7,8-dihydroimidazo[4,5-c]azepin-5(1H,4H,6H)-yl)(2-(2-cyclopropylethyl)-4-(trifluoromethyl)oxazol-5-yl)methanone]	500 to 1000 nM
c1ccc2[nH]c([C@H]3c4nc[nH]c4CCN3Cc3nccs3)nc2c1 (single isomer, unassigned) [Example 926]	> 5000 nM
O=C(c1cncs1)N1CCc2[nH]cnc2[C@H]1c1nc2cccc(F)c2s1 [Example 1233, (S)-(4-(7-fluorobenzo[d]thiazol-2-yl)-6,7-dihydro-1H-imidazo[4,5-c]pyridin-5(4H)-yl)(thiazol-5-yl)methanone]	500 to 1000 nM
O=C(c1sc(C2CC2)nc1Cl)N1CCc2[nH]cnc2[C@@H]1c1nc2c(F)cccc2s1 [Example 1632, (R)-(4-chloro-2-cyclopropylthiazol-5-yl)(4-(4-fluorobenzo[d]thiazol-2-yl)-6,7-dihydro-1H-imidazo[4,5-c]pyridin-5(4H)-yl)methanone]	1000 to 5000 nM
Cc1nc(-c2cnn(C)c2)oc1C(=O)N1CCc2[nH]cnc2[C@@H]1c1nc2c(F)cccc2s1 [Example 1377, (R)-(4-(4-fluorobenzo[d]thiazol-2-yl)-6,7-dihydro-1H-imidazo[4,5-c]pyridin-5(4H)-yl)(4-methyl-2-(1-methyl-1H-pyrazol-4-yl)oxazol-5-yl)methanone]	> 5000 nM
O=C(c1cnn2cc(F)ccc12)N1CCc2[nH]cnc2[C@H]1c1nc2ccccc2s1 [Example 1039]	500 to 1000 nM
O=C(c1nccs1)N1CCc2[nH]cnc2[C@@H]1c1nc2ccc(Br)cc2[nH]1 [Example 932, (R)-(4-(6-bromo-1H-benzo[d]imidazol-2-yl)-6,7-dihydro-1H-imidazo[4,5-c]pyridin-5(4H)-yl)(thiazol-2-yl)methanone]	> 5000 nM
O=C(c1nnc(-c2cn[nH]c2)o1)N1CCc2[nH]cnc2[C@@H]1c1nc2c(F)cccc2s1 [Example 1864, (R)-(5-(1H-pyrazol-4-yl)-1,3,4-oxadiazol-2-yl)(4-(4-fluorobenzo[d]thiazol-2-yl)-6,7-dihydro-1H-imidazo[4,5-c]pyridin-5(4H)-yl)methanone]	1000 to 5000 nM
Cc1ccc2c(C(=O)N3CCc4[nH]cnc4[C@H]3c3nc4ccccc4s3)cnn2c1 [Example 1087]	500 to 1000 nM
O=C(N1CC(F)C1)N1CCc2[nH]cnc2[C@@H]1c1nc2ccccc2s1 [Example 1690, (R)-(4-(benzo[d]thiazol-2-yl)-6,7-dihydro-1H-imidazo[4,5-c]pyridin-5(4H)-yl)(3-fluoroazetidin-1-yl)methanone]	1000 to 5000 nM
Cc1cccc2nc([C@@H]3c4nc[nH]c4CCN3C(=O)c3cncs3)sc12 [Example 1316, (S)-(4-(7-methylbenzo[d]thiazol-2-yl)-6,7-dihydro-1H-imidazo[4,5-c]pyridin-5(4H)-yl)(thiazol-5-yl)methanone]	< 500 nM
O=C(c1cnc(-c2ccnc(C(F)(F)F)c2)s1)N1CCc2[nH]cnc2[C@@H]1c1nc2ccccc2s1 [Example 1404, (R)-(4-(benzo[d]thiazol-2-yl)-6,7-dihydro-1H-imidazo[4,5-c]pyridin-5(4H)-yl)(2-(2-(trifluoromethyl)pyridin-4-yl)thiazol-5-yl)methanone]	1000 to 5000 nM
O=C(C1CCC1)N1CCc2[nH]cnc2[C@H]1c1nc2ccccc2s1 [Example 1153]	< 500 nM
CC(O)c1nc(Br)c(C(=O)N2CCc3[nH]cnc3[C@H]2c2nc3c(F)cccc3s2)o1 (single isomer, unassigned) [Example 2057]	< 500 nM
c1ccc2[nH]c([C@H]3c4nc[nH]c4CCN3c3nc4ccccc4o3)nc2c1 [Example 987, (R)-2-(4-(1H-benzo[d]imidazol-2-yl)-6,7-dihydro-1H-imidazo[4,5-c]pyridin-5(4H)-yl)benzo[d]oxazole]	> 5000 nM
C[C@@H]1CN(C(=O)c2nnc(-c3ccc(F)cn3)o2)[C@H](c2nc3ccccc3s2)c2nc[nH]c21 [Example 1754, ((4S,7R)-4-(benzo[d]thiazol-2-yl)-7-methyl-6,7-dihydro-1H-imidazo[4,5-c]pyridin-5(4H)-yl)(5-(5-fluoropyridin-2-yl)-1,3,4-oxadiazol-2-yl)methanone]	500 to 1000 nM
O=C(c1oc(C2CC2)nc1C(F)(F)F)N1CCc2[nH]cnc2[C@H]1c1nc2ccccc2s1 [Example 2163]	< 500 nM
O=C(CCC1CC1)N1CCc2[nH]cnc2[C@@H]1c1nc2ccc(F)cc2[nH]1 [Example 961, (R)-3-cyclopropyl-1-(4-(6-fluoro-1H-benzo[d]imidazol-2-yl)-6,7-dihydro-1H-imidazo[4,5-c]pyridin-5(4H)-yl)propan-1-one]	> 5000 nM
c1ccc2[nH]c([C@@H]3c4nc[nH]c4CCN3Cc3nccs3)nc2c1 (single isomer, unassigned) [Example 927]	< 500 nM

same assay, conditions: A375 cells expressing human R408W PAH; 24 hrs with compound; 13C-Tyrosine by LC-MS; average where tested multiple times; read-out: AC50

Compound	AC50
O=C(C1CC1)N1CCc2[nH]cnc2C1c1nc2c(F)cccc2s1 (stereo not shown)	1000 to 5000 nM
CC(C)(O)c1cc(C(=O)N2CCc3[nH]cnc3[C@H]2c2nc3ccccc3s2)sn1 (single isomer, unassigned)	1000 to 5000 nM
O=C(c1ncc(Cl)s1)N1CCc2[nH]cnc2C1c1nc2ccc(Cl)cc2[nH]1 (stereo not shown)	> 5000 nM
Clc1csc(CN2CCc3[nH]cnc3C2c2nc3ccccc3[nH]2)n1 (stereo not shown)	> 5000 nM
O=C(c1ccno1)N1CCc2[nH]cnc2[C@H]1c1nc2ccccc2[nH]1 [(S)-(4-(1H-benzo[d]imidazol-2-yl)-6,7-dihydro-1H-imidazo[4,5-c]pyridin-5(4H)-yl)(isoxazol-5-yl)methanone]	1000 to 5000 nM
O=C(CCCc1nccs1)N1CCc2[nH]cnc2[C@H]1c1nc2ccccc2[nH]1 [(S)-1-(4-(1H-benzo[d]imidazol-2-yl)-1,4,6,7-tetrahydro-5H-imidazo[4,5-c]pyridin-5-yl)-4-(thiazol-2-yl)butan-1-one]	1000 to 5000 nM
Cn1nc(CC#N)nc1C(=O)N1CCc2[nH]cnc2C1c1nc2c(F)cccc2s1 (stereo not shown)	1000 to 5000 nM
O=C(c1oc(-c2ccccc2)nc1-c1ccccc1)N1CCc2[nH]cnc2C1c1nc2ccccc2s1 (stereo not shown)	1000 to 5000 nM
O=C(c1cnn2cc(Br)ccc12)N1CCc2[nH]cnc2C1c1nc2ccc(Cl)cc2[nH]1 (stereo not shown)	> 5000 nM
Cc1nc(CCN2CC(F)C2)oc1C(=O)N1CCc2[nH]cnc2C1c1nc2ccccc2s1 (stereo not shown)	1000 to 5000 nM
